{"source": "patent US5656603A", "about": "(Loyola University of Chicago, priority 1995, dated 1997)", "key": {"[1]": {"molecular_target": "T1, partially purified human lung membrane-bound aminopeptidase P (Homo sapiens, UniProt O43895)", "T1 construct": "from tissue; host or cells: human lung microsomes", "T1 sequence (O43895 22-674)": "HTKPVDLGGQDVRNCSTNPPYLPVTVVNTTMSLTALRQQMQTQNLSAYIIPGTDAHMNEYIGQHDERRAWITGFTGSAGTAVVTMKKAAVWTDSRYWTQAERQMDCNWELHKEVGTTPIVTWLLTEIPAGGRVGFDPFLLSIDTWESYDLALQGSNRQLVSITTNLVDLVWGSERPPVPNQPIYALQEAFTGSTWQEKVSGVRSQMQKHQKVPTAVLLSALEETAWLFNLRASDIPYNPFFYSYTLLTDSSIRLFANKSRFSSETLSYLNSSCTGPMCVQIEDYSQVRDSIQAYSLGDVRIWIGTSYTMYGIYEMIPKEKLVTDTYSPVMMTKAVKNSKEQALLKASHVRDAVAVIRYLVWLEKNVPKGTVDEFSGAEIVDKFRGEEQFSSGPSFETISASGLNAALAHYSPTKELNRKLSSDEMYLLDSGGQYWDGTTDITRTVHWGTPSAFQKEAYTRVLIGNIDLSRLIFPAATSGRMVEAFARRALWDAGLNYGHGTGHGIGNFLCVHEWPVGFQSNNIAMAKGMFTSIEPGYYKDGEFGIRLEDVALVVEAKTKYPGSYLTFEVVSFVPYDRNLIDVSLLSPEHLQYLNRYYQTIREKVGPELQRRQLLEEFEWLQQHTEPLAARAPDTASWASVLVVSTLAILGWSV", "assay": "Aminopeptidase P inhibition, release of arginine from Arg-Pro-Pro (fluorescent assay)", "type": "biochemical", "description": "(§1) The IC50 of the compound of the present invention in relation to aminopeptidase P was also determined. […] The specificity of the compound of the present invention for other aminopeptidases was similarly determined as described in the Experimental Procedures herein.\n(§2) Enzymes--Membrane-bound aminopeptidase P was purified to homogeneity from bovine lung (14) and from rat lung. Partially purified membrane-bound aminopeptidase P from human lung was obtained by treatment of lung microsomes with phosphatidylinositol-specific phospholipase C (B. thuringiensis) (ICN, Costa Mesa, Calif.) followed by centrifugation as described previously (14). Membrane dipeptidase was purified from rat lung microsomes (manuscript in preparation). Recombinant E. coli aminopeptidase P (22) and purified lamb kidney prolyl oligopeptidase (23) were generally supplied by Dr. Tadashi Yoshimoto (Nagasaki University). Purified porcine kidney prolidase and purified porcine kidney aminopeptidase M was obtained from Sigma (St. Louis, Mo.).\n(§3) Enzyme Kinetics--Aminopeptidase P activity was determined by measuring the release of arginine from Arg-Pro-Pro by a fluorescent assay described previously (14). […] Each mixture was run in duplicate. Aliquots were removed from each incubation mixture at various times and assayed for the amount of arginine present to determine the reaction velocity. In general, reaction velocities were calculated from data representing less than 20% cleavage of substrate. Ki and Ki ' (=αKi) were determined from plots of 1/v versus concentration of inhibitor \"i\" (26) and S/v versus concentration of inhibitor \"i\" (27), respectively. These parameters were also determined from the slope replot and 1/v-intercept replot, respectively, of the 1/v versus 1/S plot (28). […] The values from the two treatments of the data were averaged for each experiment. Experiments for each enzyme preparation were performed twice and the results averaged."}, "[2]": {"molecular_target": "T2, purified rat lung membrane-bound aminopeptidase P (Rattus norvegicus, UniProt Q99MA2)", "T2 construct": "from tissue; host or cells: rat lung", "T2 sequence (Q99MA2 23-674)": "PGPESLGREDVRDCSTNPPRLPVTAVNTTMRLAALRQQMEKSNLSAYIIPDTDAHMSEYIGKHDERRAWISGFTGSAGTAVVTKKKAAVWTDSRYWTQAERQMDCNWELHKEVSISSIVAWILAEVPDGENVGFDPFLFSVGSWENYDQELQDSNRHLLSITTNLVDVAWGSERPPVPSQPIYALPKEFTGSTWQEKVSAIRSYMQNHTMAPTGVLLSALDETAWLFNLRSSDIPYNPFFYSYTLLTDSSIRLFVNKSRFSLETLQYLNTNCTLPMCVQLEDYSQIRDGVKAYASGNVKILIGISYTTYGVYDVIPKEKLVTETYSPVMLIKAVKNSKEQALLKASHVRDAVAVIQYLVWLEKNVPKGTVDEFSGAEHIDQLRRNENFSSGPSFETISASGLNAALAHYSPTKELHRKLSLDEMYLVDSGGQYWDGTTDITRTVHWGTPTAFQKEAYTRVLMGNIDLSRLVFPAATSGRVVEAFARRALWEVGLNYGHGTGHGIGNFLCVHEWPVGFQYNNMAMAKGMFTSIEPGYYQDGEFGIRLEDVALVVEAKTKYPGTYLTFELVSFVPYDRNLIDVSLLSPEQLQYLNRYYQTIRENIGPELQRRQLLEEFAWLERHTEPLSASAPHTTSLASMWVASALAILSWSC", "assay": "Aminopeptidase P inhibition, release of arginine from Arg-Pro-Pro (fluorescent assay)", "type": "biochemical", "description": "as §1, §2, §3"}}}
{"smiles": "C[C@H](NC(=O)[C@@H]1CCCN1C(=O)[C@@H]1CCCN1C(=O)[C@@H](O)[C@H](N)Cc1ccccc1)C(N)=O", "note": "[apstatin, N-[(2S, 3R)-3-amino-2-hydroxy-4-phenylbutanoyl]-L-prolyl-L-prolyl-Lalaninamide]", "values": [{"measurement": "type of inhibition", "setting": "[1]; human lung aminopeptidase P", "value": "linear mixed-type"}, {"measurement": "α (αKi = equilibrium constant for enzyme-inhibitor binding at infinite substrate concentration)", "setting": "[1]; human lung, partially purified membrane-bound form", "value": "11."}, {"measurement": "dependence of inhibition on Mn+2", "setting": "[2]", "value": "not dependent on the presence of Mn^+2"}, {"measurement": "reversibility of inhibition", "setting": "[2]; 100-fold dilution of a preincubated enzyme-apstatin mixture", "value": "indicating reversibility"}, {"measurement": "effect of preincubation on degree of inhibition (time-dependent or slow-tight binding inhibition)", "setting": "[2]; preincubation of rat aminopeptidase P for up to 2 hr. at 4° C. before addition of substrate", "value": "did not increase the degree of inhibition"}, {"measurement": "type of inhibition", "setting": "[2]; rat lung aminopeptidase P", "value": "linear mixed-type"}, {"measurement": "α (αKi = equilibrium constant for enzyme-inhibitor binding at infinite substrate concentration)", "setting": "[2]; rat lung, purified membrane-bound form", "value": 5.1}, {"measurement": "Ki", "setting": "[2]; rat lung, purified membrane-bound form, substrate Arg-Pro-Pro, 0.1 M Hepes pH 8.0, 39° C.", "value": 2600, "unit": "nM"}]}
